Laboratory results from US20080161407A1, “METHODS FOR TREATING METABOLIC SYNDROME” (Abbott Laboratories, priority 2003, published 2008).
Where two headings read alike, the source gives them in different places.

Tests used:
[1] = Pooled analysis of double-blind, placebo-controlled, non-diabetic studies of at least 6 months in subjects with metabolic syndrome at baseline; assay type: in vivo, human; conditions: change from baseline to latest assessment after month 6 up to month 12; compared to placebo
Excerpt: (§1) The benefits of sibutramine therapy can be extended to subjects with metabolic syndrome. The treatment effect of sibutramine on subjects that had metabolic syndrome at study entry in the STORM trial and by a pooled analysis of double-blind, placebo-controlled, non-diabetic studies of at least 6 months duration were studied. Subjects were identified who had increased abdominal obesity (waist circumference), decreased HDL cholesterol, and elevated triglycerides (TG) at baseline, and who also completed at least 6 months of sibutramine treatment (pooled analysis subjects: 266 sibutramine, 134 placebo; STORM: 80 sibutramine). Since all subjects in the STORM trial received sibutramine for the first 6 months of the study, only subjects subsequently randomized to receive sibutramine for a longer duration were included. The analyses for each variable were based on change from baseline to latest assessment after month 6, up to and including month 12.

[2] = STORM trial, subjects that had metabolic syndrome at study entry; assay type: in vivo, human; conditions: change from baseline to latest assessment after month 6 up to month 12
Excerpt: as §1

[3] = cited from earlier work
[4] = compared to placebo; cited from earlier work
[5] = subjects who lost and maintained weight, compared to baseline values of all subjects

With `CC(C)CC(N(C)C)C1(c2ccc(Cl)cc2)CCC1` (centres unmarked) [sibutramine, N,N-dimethyl-1-[1-(4-chlorophenyl)cyclobutyl]-3-methylbutylamine] the HDL [1] was “clinically and statistically significant improvements”, the TG [1] was “clinically and statistically significant improvements” and the waist circumference [1] was “clinically and statistically significant improvements”. The weight loss [1] was “clinically and statistically significant improvements”, the HDL [2] was “favorable changes” and the TG [2] was “favorable changes”. For the same molecule, the waist circumference [2] was “favorable changes”, the weight loss [2] was “favorable changes” and the “subjects who maintained at least 80% of their month six weight loss” value ([3]; at two years, subjects who completed the trial, placebo 16%) was 43%. For the same molecule, the “mean fasting insulin levels” value ([3]; at two years) was “reduced”, the “subjects who maintained ≧10% weight reduction” value ([3]; end of two years of treatment, placebo 21%) was 46% and the “subjects who maintained ≧5% weight reduction” value ([3]; end of two years of treatment, placebo 44%) was 69%. For the same molecule, the mean weight loss ([3]; first six months of sibutramine treatment) was 26 lbs, the “subjects who achieved a ≧5% weight reduction” value ([3]; of the 499 subjects who completed the first six months, sibutramine with reduced calorie diet and increased physical activity) was 94% and the HDL cholesterol [3, 5] was “clinically and statistically significant improvements”. The triglycerides [3, 5] was “clinically and statistically significant improvements”, the waist circumference [3, 5] was “clinically and statistically significant improvements” and the impaired fasting glucose ([3]; subjects who lost and maintained weight) was “significantly changed”. For the same molecule, the HDL cholesterol [4] was “significant improvements”, the “fasting blood glucose levels” value [4] was “not significantly changed” and the insulin levels [4] was “significant improvements”. The triglyceride levels [4] was “significant improvements” and the “waist circumference (a measure for abdominal obesity)” value [4] was “significant improvements”.
